# Test results: PubChem BioAssay (NCI)
# Several values for one entry are separate records, joined by “and”; a condition that tells them apart may be missing. Identical values can stand only once.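 Interpolation was linear, between the two tested concentrations surrounding the appropriate level; five concentrations were tested over 48 hours in 96-well plates. Here, GI50 denotes the concentration required for 50% inhibition of growth. TGI: concentration producing complete growth inhibition.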
# Legend:
# Assay in all cases: inhibition of tumour cell growth, NCI panel, 48 h
# SN12C renal = test system: SN12C renal
# TK-10 renal = test system: TK-10 renal
# OVCAR-4 ovarian = test system: OVCAR-4 ovarian
# K-562 leukemia = test system: K-562 leukemia
# SF-295 CNS = test system: SF-295 CNS
# SK-MEL-28 melanoma = test system: SK-MEL-28 melanoma
# A549 NSCLC = test system: A549 NSCLC
# ACHN renal = test system: ACHN renal
SMILES,GI50 (SN12C renal),TGI (SN12C renal),GI50 (TK-10 renal),TGI (TK-10 renal),GI50 (OVCAR-4 ovarian) [µM],TGI (OVCAR-4 ovarian),GI50 (K-562 leukemia),TGI (K-562 leukemia) [µM],GI50 (SF-295 CNS),TGI (SF-295 CNS),GI50 (SK-MEL-28 melanoma) [µM],TGI (SK-MEL-28 melanoma) [µM],GI50 (A549 NSCLC),TGI (A549 NSCLC),GI50 (ACHN renal),TGI (ACHN renal)
CN1CCN(Cc2ccc(NC(=O)c3cncc(C#Cc4cncc5nccnc45)c3)cc2C(F)(F)F)CC1,1.97 µM,13.9 µM,5.34 µM,12.8 µM,1.04,12 µM,0.005 µM,9.86,7.05 µM,14.4 µM,1.66,5.97,4.3 µM,11.4 µM,1.57 µM,6.48 µM
Cn1c2ccccc2c2c3[nH][nH]c(=O)c3c3c4ccccc4[nH]c3c21,2.33 µM,> 100 µM,4.74 µM,57.2 µM,2.6,13.2 µM,3.3 µM,15.9,3.14 µM,10.9 µM,3.74,12.9,3.22 µM,16.8 µM,2.6 µM,> 100 µM
COc1c(-c2ccc(O)c(O)c2)oc2c(O)c(O)cc(O)c2c1=O,–,31 µM,–,> 100 µM,–,> 100 µM,–,46.4,–,> 100 µM,–,> 100,–,> 100 µM,–,> 100 µM
Cc1ccc(C(SCC(N)C(=O)O)(c2ccccc2)c2ccccc2)cc1 (configuration not stated),0.13 µM,> 65.9 µM,1.22 µM,> 100 µM,22.8,> 100 µM,0.0485 µM,> 100,0.0465 µM,> 100 µM,6.5,> 100,0.153 µM,> 100 µM,2.67 µM,> 100 µM
N=C(N)c1ccc(NCCOCCNc2ccc(C(=N)N)cc2)cc1,4.28 µM,> 100 µM,> 100 µM,> 100 µM,34.1,> 100 µM,21.3 µM,> 100,43.3 µM,> 100 µM,73.3,> 100,14.4 µM,> 100 µM,36.1 µM,> 100 µM
Cc1cc2nc3cc(C)c(N)cc3[n+](-c3ccccc3)c2cc1N,1.59 µM,> 23 µM,36.6 µM,> 100 µM,3.57,> 100 µM,3.39 µM,> 100,2.94 µM,> 73.8 µM,15.2,79.3,14.6 µM,> 100 µM,> 68.2 µM,> 100 µM
NC(N)=Nc1nc2ccc([N+](=O)[O-])cc2[nH]1,–,> 100 µM,–,> 100 µM,–,> 100 µM,–,> 100,–,> 100 µM,–,> 100,–,> 100 µM,–,> 100 µM
C/C(=N\NC(=S)N1CC2CCC(CC2)C1)c1cccc(C)n1,0.774 µM,12.6 µM,0.786 µM,16.1 µM,0.000172,16.1 µM,< 0.0001 µM,–,–,13.1 µM,–,17.7,0.248 µM,12.9 µM,–,5.33 µM
O=c1c(Br)cc2c(-c3ccccc3)c3cc(Br)c(O)c(Br)c3oc-2c1Br,–,> 100 µM,–,> 100 µM,–,63.7 µM,–,> 100,–,> 100 µM,–,> 100,–,> 100 µM,–,> 100 µM
CCC(=O)Nc1ccccc1C#C/C=C\C#Cc1ccccc1C(F)(F)F,2.22 µM,> 50 µM,4.46 µM,> 50 µM,14.6,> 50 µM,2.29 µM,> 50,1 µM,5.34 µM,3.65,> 50,2.53 µM,> 32.6 µM,3.98 µM,> 50 µM
CN1CCN(c2nc(NCCCNc3ccnc4cc(Cl)ccc34)c3ccccc3n2)CC1,4.97 µM,18 µM,10.8 µM,26.2 µM,2.69,12.5 µM,2.64 µM,10.9,2.05 µM,4.92 µM,2.17,4.22,5.01 µM,19.2 µM,3.92 µM,13.6 µM
Cc1[nH]nc2c1N=C(c1ccccc1F)c1cc(C(N)=O)ccc1N2,4.2 µM,> 25 µM,3.61 µM,16.3 µM,5.25,> 25 µM,1.72 µM,> 25,1.28 µM,24.9 µM,5.79,> 24.1,7.56 µM,> 25 µM,3.3 µM,> 22.9 µM
C/C=C/[C@H]1O[C@@H]2C(=C[C@H]1O)C(=O)O[C@H]2C,16.6 µM,33.6 µM,14.9 µM,33 µM,12.3,33.3 µM,7.55 µM,> 33.8,> 82.1 µM,> 100 µM,0.786,12.1,19 µM,42.3 µM,7.71 µM,22.9 µM
CC(C)n1nc(-c2ccc3oc(N)nc3c2)c2c(N)ncnc21,< 0.0114 µM and 0.0113 µM,2.69 µM and 8.69 µM,< 0.0113 µM and 0.0112 µM,0.24 µM and 0.0897 µM,< 0.01,0.077 µM and 0.0569 µM,0.0431 µM and 0.0376 µM,> 100,< 0.01 µM and 0.0102 µM,0.0472 µM and 0.0773 µM,< 0.0108,0.189,0.0156 µM and 0.0191 µM,2.88 µM and 1.03 µM,0.0105 µM and 0.013 µM,1.14 µM and 0.82 µM
C[C@]12CC[C@H]3[C@@H](C[C@@H]4SC(Nc5ccccc5)=N[C@@]45CC(O)CC[C@]35C)[C@@H]1CCC2O (some centres not stated),1.65 µM,3.28 µM,2.91 µM,6.63 µM,3.13,15.4 µM,2.45 µM,12.6,1.06 µM,2.98 µM,1.68,3.99,2.41 µM,6.02 µM,1.71 µM,3.25 µM
Oc1cccc(/C=N/Nc2nnc(N/N=C/c3cccc(O)c3)c3ccccc23)c1,–,30.5 µM,–,50.9 µM,–,82.6 µM,–,47.6,–,31.8 µM,–,60.2,–,57.5 µM,–,40.7 µM
CCCCNC(=O)Oc1ccc(/C(=C(/C)Cc2ccc(OC)cc2)c2ccc(OCCN3CCCC3)cc2)cc1,1.77 µM,3.27 µM,4.31 µM,17.8 µM,1.83,4.26 µM,1.57 µM,5.13,1.65 µM,3.14 µM,1.83,3.57,1.95 µM,3.8 µM,1.79 µM,3.32 µM
Cc1[nH]c(-c2nc3ccccc3[nH]2)c(C)c1C(=O)NC(C)C1CCCCC1 (configuration not stated),10.5 µM,26 µM,21.5 µM,41.6 µM,12.4,26.8 µM,3.45 µM,> 100,4.8 µM,16.8 µM,10.4,23.5,12.2 µM,34 µM,14.4 µM,30.2 µM
O=[n+]1c2ccccc2n([O-])c2cc(Cl)ccc21,3.52 µM,14.1 µM,4.96 µM,18 µM,2.67,26.6 µM,3.02 µM,12.8,4.32 µM,20.9 µM,16.4,97.4,3.17 µM,22.9 µM,2.91 µM,9.95 µM
CCc1cc2ncc(CN3CCN(c4ccc(C(=O)NC)nc4)CC3)cc2[nH]c1=O,98.3 µM,> 100 µM,43.1 µM,> 100 µM,41.3,> 100 µM,50 µM,> 100,56.7 µM,> 100 µM,> 100,> 100,> 100 µM,> 100 µM,78.3 µM,> 100 µM
COc1cc2ncnc(Nc3ccc4c(cnn4Cc4ccccc4)c3)c2cc1OC,> 17 µM,> 25 µM,0.131 µM,> 25 µM,> 25,> 25 µM,7.27 µM,> 19.7,> 20.2 µM,> 25 µM,> 25,> 25,> 17.9 µM,> 25 µM,0.642 µM,> 25 µM
COc1ccc(/C=C2\CN(Cc3cn(CCNc4ccnc5cc(Cl)ccc45)nn3)C/C(=C\c3ccc(OC)c(OC)c3)C2=O)cc1OC,2.36 µM,6.79 µM,4.96 µM,22 µM,4.07,> 100 µM,3.21 µM,> 100,2.41 µM,6.1 µM,2.29,5.97,4.73 µM,40.4 µM,5.25 µM,19.9 µM
COc1cc(N2CCN(C(C)C)CC2)ccc1Nc1nc(Nc2cccc(F)c2C(=O)O)c2cc[nH]c2n1,> 25 µM,> 25 µM,> 25 µM,> 25 µM,> 25,> 25 µM,> 25 µM,> 25,> 25 µM,> 25 µM,> 25,> 25,> 25 µM,> 25 µM,> 25 µM,> 25 µM
